Results: patent US7763728B2, “Tetrahydropyridothiophenes” (4SC AG, priority 2005, dated 2010)

Columns and labels:
[1] = tested on: RKO (RKOp27) human colon adenocarcinoma cells; assay: Alamar Blue cell viability assay, anti-proliferative/cytotoxic activity on proliferating (uninduced) RKOp27 cells; format: cell-based; conditions: 72 hours incubation, absence of the inducer Ponasterone A, read-out: IC50 RKO p27 uninduced (proliferating)
Experimental: The anti-proliferative/cytotoxic activity of the compounds described herein, can be tested on subclones of RKO (RKOp27) human colon adenocarcinoma cells (Schmidt et al., Oncogene 19, 2423-2429; 2000) using the Alamar Blue cell viability assay (described in O'Brien et al. Eur J Biochem 267, 5421-5426, 2000). The compounds are dissolved as 20 mM solutions in dimethylsulfoxide (DMSO) and subsequently diluted in semi-logarithmic steps. DMSO dilutions are further diluted 1:100 into Dulbecco's modified Eagle's medium (DMEM) containing 10% fetal calf serum to a final concentration twice as much as the final concentration in the test. RKO subclones are seeded into 96 well flat bottom plates at a density of 5000 cells per well in a volume of 50 μl per well. 24 hours after seeding the 50 μl each of the compound dilutions in DMEM medium are added into each well of the 96 Well plate. Each compound dilution is tested as quadruplicates. Wells containing untreated control cells are filled with 50 μl DMEM medium containing 1% DMSO. The cells are then incubated with the substances for 72 hours at 37° C. in a humified atmosphere containing 5% carbon dioxide. To determine the viability of the cells, 10 μl of an Alamar Blue solution (Biosource) are added and the fluorescence is measured at an extinction of 544 nm and an emission of 590 nm. For the calculation of the cell viability the emission value from untreated cells is set as 100% viability and the emission rates of treated cells are set in relation to the values of untreated cells. Viabilities are expressed as % values.
The corresponding IC50 values of the compounds for anti-proliferative/cytotoxic activity are determined from the concentration-effect curves.
Representative IC50 values for anti-proliferation/cytotoxicity determined in the mentioned assay follow from the following table A, in which the numbers of the compounds correspond to the numbers of the examples.

[2] = tested on: RKO colon adenocarcinoma cells (RKOp27) arrested by the expression of ectopic p27Kip1; assay: Alamar Blue cell viability assay on RKOp27 cells arrested by p27Kip1 expression induced by Ponasterone A; format: cell-based; conditions: Homo sapiens, 72 hours incubation, 10 μM Ponasterone A, read-out: IC50 RKO p27 induced (arrested)
Experimental: To determine the cell cycle specific mode of action, subclones of RKO colon adenocarcinoma cells (RKOp27 or RKOp21 as described by Schmidt et al. in Oncogene 19, 2423-2429; 2000) are seeded into 96 well flat bottom plates at a density of 15000 cells per well in a volume of 50 μl per well in DMEM growth medium with 10% FCS containing 10 μM Ponasterone A. 24 hours after seeding the 50 μl each of the compound dilutions in DMEM medium are added into each well of the 96 Well plate. Each compound dilution is tested as quadruplicates. Wells containing untreated control cells are filled with 50 μl DMEM medium containing 1% DMSO. The cells are then incubated with the substances for 72 hours at 37° C. in a humidified atmosphere containing 5% carbon dioxide. To determine the viability of the cells, 10 μl of an Alamar Blue solution (Biosource) are added and the fluorescence was measured at an extinction of 544 nm and an emission of 590 nm. For the calculation of the cell viability the emission value from untreated cells is set as 100% viability and the emission rates of treated cells are set in relation to the values of untreated cells. Viabilities are expressed as % values. Viability is compared of proliferating cells grown in the absence of the inducer Ponasterone A, versus viability of cells arrested by the expression of ectopic p27Kip1 induced by Ponasterone A.

SMILES | IC50 [2] | IC50 [1]
COc1ccccc1C(C)CC(=O)Nc1sc2c(c1C#N)CCN(C(=O)Cc1ccccn1)C2 (racemic) [Example 62, (RS)—N-[3-Cyano-6-(2-pyridin-2-yl-ethanoyl)-4,5,6,7-tetrahydro-thieno[2,3-c]pyridin-2-yl]-3-(2-methoxy-phenyl)-butyramide] | > 100 µM | ≤ 0.3 µM
COCC(=O)N1CCc2c(sc(NC(=O)CCc3cc(C)ccc3OC)c2C#N)C1 [Example 33, N-[3-Cyano-6-(2-methoxy-ethanoyl)-4,5,6,7-tetrahydro-thieno[2,3-c]pyridin-2-yl]-3-(2-methoxy-5-methyl-phenyl)-propionamide] | > 100 µM | 0.3 to 2 µM
COc1cccc(CCC(=O)Nc2sc3c(c2C#N)CCN(C(=O)CCn2ccnc2)C3)c1 [Example 20, N-[3-Cyano-6-(3-imidazol-1-yl-propanoyl)-4,5,6,7-tetrahydro-thieno[2,3-c]pyridin-2-yl]-3-(3-methoxy-phenyl)-propionamide] | ≥ 40 µM | 0.3 to 2 µM
COCCOCC(=O)N1CCc2c(sc(NC(=O)CCc3ccccc3OC)c2C#N)C1 [Example 6, N-{3-Cyano-6-[2-(2-methoxy-ethoxy)-ethanoyl]-4,5,6,7-tetrahydro-thieno[2,3-c]pyridin-2-yl}-3-(2-methoxy-phenyl)-propionamide] | ≥ 40 µM | 0.3 to 2 µM
CCOc1ccccc1C(C)CC(=O)Nc1sc2c(c1C#N)CCN(C(=O)CCn1ccnc1C)C2 (racemic) [Example 106, (RS)—N-{3-Cyano-6-[3-(2-methyl-imidazol-1-yl)-propanoyl]-4,5,6,7-tetrahydro-thieno[2,3-c]pyridin-2-yl}-3-(2-ethoxy-phenyl)-butyramide] | ≥ 10 µM | 0.3 to 2 µM
CCOc1ccccc1CCC(=O)Nc1sc2c(c1C#N)CCN(C(=O)CCn1cnc(C)c1)C2 [Example 156, N-{3-Cyano-6-[3-(4-methyl-imidazol-1-yl)-propanoyl]-4,5,6,7-tetrahydro-thieno[2,3-c]pyridin-2-yl}-3-(2-ethoxy-phenyl)-propionamide] | ≥ 10 µM | ≤ 0.3 µM
COCC(=O)N1CCc2c(sc(NC(=O)CCc3ccccc3OC)c2C#N)C1 [Example 5, N-[3-Cyano-6-(2-methoxy-ethanoyl)-4,5,6,7-tetrahydro-thieno[2,3-c]pyridin-2-yl]-3-(2-methoxy-phenyl)-propionamide] | > 100 µM | ≤ 0.3 µM
COCCC(=O)N1CCc2c(sc(NC(=O)CCc3cc(C)ccc3OC)c2C#N)C1 [Example 32, N-[3-Cyano-6-(3-methoxy-propanoyl)-4,5,6,7-tetrahydro-thieno[2,3-c]pyridin-2-yl]-3-(2-methoxy-5-methyl-phenyl)-propionamide] | > 100 µM | 0.3 to 2 µM
COc1ccc(C)cc1CCC(=O)Nc1sc2c(c1C#N)CCN(C(=O)Cn1cc(C)nc1C)C2 [Example 149, N-{3-Cyano-6-[2-(2,4-dimethyl-imidazol-1-yl)-ethanoyl]-4,5,6,7-tetrahydro-thieno[2,3-c]pyridin-2-yl}-3-(2-methoxy-5-methyl-phenyl)-propionamide] | ≥ 10 µM | 0.3 to 2 µM
COc1ccc(C)cc1CCC(=O)Nc1sc2c(c1C#N)CCN(C(=O)Cn1ccnc1C)C2 [Example 132, N-{3-Cyano-6-[2-(2-methyl-imidazol-1-yl)-ethanoyl]-4,5,6,7-tetrahydro-thieno[2,3-c]pyridin-2-yl}-3-(2-methoxy-5-methyl-phenyl)-propionamide] | ≥ 40 µM | ≤ 0.3 µM
COc1ccc(C)cc1CCC(=O)Nc1sc2c(c1C#N)CCN(C(=O)CCc1cccnc1)C2 [Example 29, N-[3-Cyano-6-(3-pyridin-3-yl-propanoyl)-4,5,6,7-tetrahydro-thieno[2,3-c]pyridin-2-yl]-3-(2-methoxy-5-methyl-phenyl)-propionamide] | > 100 µM | 0.3 to 2 µM
CCOc1ccccc1CCC(=O)Nc1sc2c(c1C#N)CCN(C(=O)CCn1cc(C)nc1C)C2 [Example 162, N-{3-Cyano-6-[3-(2,4-dimethyl-imidazol-1-yl)-propanoyl]-4,5,6,7-tetrahydro-thieno[2,3-c]pyridin-2-yl}-3-(2-ethoxy-phenyl)-propionamide] | ≥ 10 µM | 0.3 to 2 µM

The next lines start with results.

IC50 [2] | SMILES | IC50 [1]
> 100 µM | COCCC(=O)N1CCc2c(sc(NC(=O)CCc3cccc(OC)c3)c2C#N)C1 [Example 12, N-[3-Cyano-6-(3-methoxy-propanoyl)-4,5,6,7-tetrahydro-thieno[2,3-]pyridin-2-yl]-3-(3-methoxy-phenyl)-propionamide] | 0.3 to 2 µM
≥ 40 µM | COc1ccccc1CCC(=O)Nc1sc2c(c1C#N)CCN(C(=O)Cn1cnc(C)c1)C2 [Example 139, N-{3-Cyano-6-[2-(4-methyl-imidazol-1-yl)-ethanoyl]-4,5,6,7-tetrahydro-thieno[2,3-c]pyridin-2-yl}-3-(2-methoxy-phenyl)-propionamide] | ≤ 0.3 µM
> 100 µM | COc1cccc(CCC(=O)Nc2sc3c(c2C#N)CCN(C(=O)CO)C3)c1 [Example 28, N-[3-Cyano-6-(2-hydroxy-ethanoyl)-4,5,6,7-tetrahydro-thieno[2,3-c]pyridin-2-yl]-3-(3-methoxy-phenyl)-propionamide] | 0.3 to 2 µM
≥ 10 µM | COc1ccc(C)cc1CCC(=O)Nc1sc2c(c1C#N)CCN(C(=O)CCn1cnc(C)c1)C2 [Example 157, N-{3-Cyano-6-[3-(4-methyl-imidazol-1-yl)-propanoyl]-4,5,6,7-tetrahydro-thieno[2,3-c]pyridin-2-yl}-3-(2-methoxy-5-methyl-phenyl)-propionamide] | 0.3 to 2 µM
> 100 µM | COc1cccc(CCC(=O)Nc2sc3c(c2C#N)CCN(C(=O)Cc2ccccn2)C3)c1 [Example 31, N-[3-Cyano-6-(2-pyridin-2-yl-ethanoyl)-4,5,6,7-tetrahydro-thieno[2,3-c]pyridin-2-yl]-3-(3-methoxy-phenyl)-propionamide] | ≤ 0.3 µM
> 100 µM | COc1ccc(C)cc1CCC(=O)Nc1sc2c(c1C#N)CCN(C(=O)CCc1cc(C)ccn1)C2 [Example 34, N-{3-Cyano-6-[3-(4-methyl-pyridin-2-yl)-propanoyl]-4,5,6,7-tetrahydro-thieno[2,3-c]pyridin-2-yl}-3-(2-methoxy-5-methyl-phenyl)-propionamide] | 0.3 to 2 µM
≥ 10 µM | COc1ccccc1C(C)CC(=O)Nc1sc2c(c1C#N)CCN(C(=O)Cn1cc(C)nc1C)C2 (racemic) [Example 144, (RS)—N-{3-Cyano-6-[2-(2,4-dimethyl-imidazol-1-yl)-ethanoyl]-4,5,6,7-tetrahydro-thieno[2,3-c]pyridin-2-yl}-3-(2-methoxy-phenyl)-butyramide] | 0.3 to 2 µM
> 100 µM | CCCC(=O)N1CCc2c(sc(NC(=O)CCc3ccccc3OC)c2C#N)C1 [Example 91, N-(6-Butyryl-3-cyano-4,5,6,7-tetrahydro-thieno[2,3-c]pyridin-2-yl)-3-(2-methoxy-phenyl)-propionamide] | ≤ 0.3 µM
≥ 10 µM | CCOc1ccccc1C(C)CC(=O)Nc1sc2c(c1C#N)CCN(C(=O)Cn1cnc(C)c1)C2 (racemic) [Example 136, (RS)—N-{3-Cyano-6-[2-(4-methyl-imidazol-1-yl)-ethanoyl]-4,5,6,7-tetrahydro-thieno[2,3-c]pyridin-2-yl}-3-(2-ethoxy-phenyl)-butyramide] | 0.3 to 2 µM
≥ 40 µM | COc1ccccc1CCC(=O)Nc1sc2c(c1C#N)CCN(C(=O)Cc1ccccn1)C2 [Example 59, N-[3-Cyano-6-(2-pyridin-2-yl-ethanoyl)-4,5,6,7-tetrahydro-thieno[2,3-c]pyridin-2-yl]-3-(2-methoxy-phenyl)-propionamide] | ≤ 0.3 µM
> 100 µM | CCCC(=O)N1CCc2c(sc(NC(=O)CC(C)c3ccccc3OCC)c2C#N)C1 (racemic) [Example 90, (RS)—N-(6-Butyryl-3-cyano-4,5,6,7-tetrahydro-thieno[2,3-c]pyridin-2-yl)-3-(2-ethoxy-phenyl)-butyramide] | ≤ 0.3 µM
